Source: PMC5218480 (PLoS ONE, 2017)

Test system: MV-4-11 cells
Assay: Gene expression microarray analysis (Affymetrix PrimeView) and GSEA
Assay type: cell-based, human
Set-up: RFU PODN (11730768_x_at) / Fold change /veh PODN (11730768_x_at) / RFU LINC00158 (11744669_a_at) / Fold change /veh LINC00158 (11744669_a_at) / RFU DUSP10 (11751237_a_at) / Fold change /veh DUSP10 (11751237_a_at) / RFU ID3 (11757404_x_at) / Fold change /veh ID3 (11757404_x_at) / RFU PLEKHG5 (11737974_s_at) / Fold change /veh PLEKHG5 (11737974_s_at) / RFU LRRC4B (11730491_at) / Fold change /veh LRRC4B (11730491_at) / RFU GIMAP4 (11747438_a_at) / Fold change /veh GIMAP4 (11747438_a_at) / RFU KRT8 (11758183_x_at) / Fold change /veh KRT8 (11758183_x_at) / RFU CNN1 (11734310_a_at) / Fold change /veh CNN1 (11734310_a_at) / RFU VPS37D (11726825_at) / Fold change /veh VPS37D (11726825_at) / RFU C10orf10 (11716522_x_at) / Fold change /veh C10orf10 (11716522_x_at) / RFU KIR2DL2 /// KIR2DL4 /// KIR2DL5A /// KIR2DL5B /// KIR2DS1 /// KIR2DS2 /// KIR2DS3 /// KIR2DS4 /// KIR3DL3 /// KIR3DL3 /// KIR3DS1 (11738374_at) / Fold change /veh KIR2DL2 /// KIR2DL4 /// KIR2DL5A /// KIR2DL5B /// KIR2DS1 /// KIR2DS2 /// KIR2DS3 /// KIR2DS4 /// KIR3DL3 /// KIR3DL3 /// KIR3DS1 (11738374_at) / RFU C1QL1 (11718748_at) / Fold change /veh C1QL1 (11718748_at) / RFU TMPRSS4 (11747572_a_at) / Fold change /veh TMPRSS4 (11747572_a_at) / RFU HAMP (11756126_x_at) / Fold change /veh HAMP (11756126_x_at) / RFU RNFT2 (11725882_a_at) / Fold change /veh RNFT2 (11725882_a_at) / RFU NR4A2 (11747474_a_at) / Fold change /veh NR4A2 (11747474_a_at) / RFU ABCC12 (11746883_a_at) / Fold change /veh ABCC12 (11746883_a_at) / RFU TMEM136 (11760407_x_at) / Fold change /veh TMEM136 (11760407_x_at) / RFU CLDN22 /// WWC2 (11732394_at) / Fold change /veh CLDN22 /// WWC2 (11732394_at) / RFU HLA-DPB1 (11760878_x_at) / Fold change /veh HLA-DPB1 (11760878_x_at) / RFU SPINT1 (11716480_a_at) / Fold change /veh SPINT1 (11716480_a_at) / RFU GAP43 (11754022_s_at) / Fold change /veh GAP43 (11754022_s_at) / RFU A4GNT (11735810_at) / Fold change /veh A4GNT (11735810_at) / RFU PRB3 (11715151_x_at) / Fold change /veh PRB3 (11715151_x_at) / RFU TUBB4B (11761932_at) / Fold change /veh TUBB4B (11761932_at) / RFU CAPN14 (11732068_a_at) / Fold change /veh CAPN14 (11732068_a_at) / RFU TMCC2 (11721928_a_at) / Fold change /veh TMCC2 (11721928_a_at) / RFU IRGQ (11745062_a_at) / Fold change /veh IRGQ (11745062_a_at) / RFU FAM174B (11720279_a_at) / Fold change /veh FAM174B (11720279_a_at) / RFU TMPRSS4 (11748680_a_at) / Fold change /veh TMPRSS4 (11748680_a_at) / RFU FAM212B (11763350_a_at) / Fold change /veh FAM212B (11763350_a_at) / RFU PLEKHG5 (11743358_a_at) / Fold change /veh PLEKHG5 (11743358_a_at) / RFU ZSCAN30 (11745921_a_at) / Fold change /veh ZSCAN30 (11745921_a_at) / RFU CMKLR1 (11741424_a_at) / Fold change /veh CMKLR1 (11741424_a_at) / RFU LOC101060620 /// MAPK8IP1 (11723275_at) / Fold change /veh LOC101060620 /// MAPK8IP1 (11723275_at) / RFU SPTSSB (11747773_x_at) / Fold change /veh SPTSSB (11747773_x_at) / RFU PRSS12 (11739890_at) / Fold change /veh PRSS12 (11739890_at) / RFU BIN1 (11741810_x_at) / Fold change /veh BIN1 (11741810_x_at) / RFU WNT11 (11732464_a_at) / Fold change /veh WNT11 (11732464_a_at) / RFU C10orf10 (11716521_a_at) / Fold change /veh C10orf10 (11716521_a_at) / RFU C5orf56 (11738089_at) / Fold change /veh C5orf56 (11738089_at) / RFU CYB561 (11721691_x_at) / Fold change /veh CYB561 (11721691_x_at) / RFU ANKRD19P (11752326_a_at) / Fold change /veh ANKRD19P (11752326_a_at) / RFU OR2T12 /// OR2T33 /// OR2T8 (11738714_s_at) / Fold change /veh OR2T12 /// OR2T33 /// OR2T8 (11738714_s_at) / RFU VCAN (11748164_a_at) / Fold change /veh VCAN (11748164_a_at) / RFU JSRP1 (11732532_at) / Fold change /veh JSRP1 (11732532_at) / RFU KRTAP10-11 (11738290_x_at) / Fold change /veh KRTAP10-11 (11738290_x_at) / RFU MYO3A (11730013_a_at) / Fold change /veh MYO3A (11730013_a_at) / RFU EBF3 (11725865_a_at) / Fold change /veh EBF3 (11725865_a_at) / RFU CAMK2N1 (11719241_x_at) / Fold change /veh CAMK2N1 (11719241_x_at) / RFU C5orf56 (11738088_a_at) / Fold change /veh C5orf56 (11738088_a_at) / RFU OLFML3 (11715873_a_at) / Fold change /veh OLFML3 (11715873_a_at) / RFU LOC100653217 /// NTM (11731650_a_at) / Fold change /veh LOC100653217 /// NTM (11731650_a_at) / RFU MAPK11 (11762145_a_at) / Fold change /veh MAPK11 (11762145_a_at) / RFU FIZ1 (11724087_x_at) / Fold change /veh FIZ1 (11724087_x_at) / RFU OASL (11726364_x_at) / Fold change /veh OASL (11726364_x_at) / RFU SOX15 (11748057_x_at) / Fold change /veh SOX15 (11748057_x_at) / RFU CD79A (11719716_a_at) / Fold change /veh CD79A (11719716_a_at) / RFU HIST1H1D (11736915_at) / Fold change /veh HIST1H1D (11736915_at) / RFU CASKIN2 (11723855_a_at) / Fold change /veh CASKIN2 (11723855_a_at) / RFU LOC730098 (11760151_x_at) / Fold change /veh LOC730098 (11760151_x_at) / RFU OR4N2 (11742367_at) / Fold change /veh OR4N2 (11742367_at) / RFU PRRT2 (11749266_a_at) / Fold change /veh PRRT2 (11749266_a_at) / RFU SNX32 (11753110_a_at) / Fold change /veh SNX32 (11753110_a_at) / RFU CDHR5 (11726645_a_at) / Fold change /veh CDHR5 (11726645_a_at) / RFU RCAN1 (11760418_a_at) / Fold change /veh RCAN1 (11760418_a_at) / RFU FAM167A (11723789_a_at) / Fold change /veh FAM167A (11723789_a_at) / RFU FAM26E (11764081_at) / Fold change /veh FAM26E (11764081_at) / RFU ISYNA1 (11749810_s_at) / Fold change /veh ISYNA1 (11749810_s_at) / RFU ACY1 (11761880_at) / Fold change /veh ACY1 (11761880_at) / RFU 11764098_at / Fold change /veh 11764098_at / RFU SAMD14 (11745864_x_at) / Fold change /veh SAMD14 (11745864_x_at) / RFU NPB (11741838_a_at) / Fold change /veh NPB (11741838_a_at) / RFU TMPRSS6 (11731388_a_at) / Fold change /veh TMPRSS6 (11731388_a_at) / RFU KRTAP10-2 (11738614_at) / Fold change /veh KRTAP10-2 (11738614_at) / RFU ARHGAP8 /// PRR5-ARHGAP8 (11727945_x_at) / Fold change /veh ARHGAP8 /// PRR5-ARHGAP8 (11727945_x_at) / RFU KRTAP5-7 /// NADSYN1 (11734609_at) / Fold change /veh KRTAP5-7 /// NADSYN1 (11734609_at) / RFU RASL12 (11751679_a_at) / Fold change /veh RASL12 (11751679_a_at) / RFU CDKN2B (11736163_a_at) / Fold change /veh CDKN2B (11736163_a_at) / RFU PRF1 (11729649_at) / Fold change /veh PRF1 (11729649_at) / RFU, ZNF638 /// ZNF638-IT1 / Fold change vs veh, ZNF638 /// ZNF638-IT1 / RFU, PANK3 / Fold change vs veh, PANK3 / RFU, SH3YL1 / Fold change vs veh, SH3YL1 / RFU, ZEB2 / Fold change vs veh, ZEB2 / RFU, NRIP1 / Fold change vs veh, NRIP1 / RFU, PTTG1IP / Fold change vs veh, PTTG1IP / RFU, CAPN2 / Fold change vs veh, CAPN2 / RFU, MED14 / Fold change vs veh, MED14 / RFU, SNORA58 / Fold change vs veh, SNORA58 / RFU, C1orf63 / Fold change vs veh, C1orf63 / RFU, LRRFIP1 / Fold change vs veh, LRRFIP1 / RFU, NDUFAF7 / Fold change vs veh, NDUFAF7 / RFU, SLC12A2 / Fold change vs veh, SLC12A2 / RFU, IBTK / Fold change vs veh, IBTK / RFU, ESF1 / Fold change vs veh, ESF1 / Fold change vs veh, TMEM50B / RFU, TAOK1 / Fold change vs veh, TAOK1 / RFU, ACBD3 / Fold change vs veh, ACBD3 / RFU, TMA16 / Fold change vs veh, TMA16 / RFU, RWDD3 / Fold change vs veh, RWDD3 / RFU, BCAT1 / Fold change vs veh, BCAT1 / RFU, EDEM3 / Fold change vs veh, EDEM3 / RFU, TMEM33 / Fold change vs veh, TMEM33 / RFU, WDR75 / Fold change vs veh, WDR75 / RFU, AHCTF1 / Fold change vs veh, AHCTF1 / RFU, TFRC / Fold change vs veh, TFRC / RFU, ZDHHC17 / Fold change vs veh, ZDHHC17 / RFU, NOM1 / Fold change vs veh, NOM1 / RFU, ARL8B / Fold change vs veh, ARL8B / RFU, ZBTB11 / Fold change vs veh, ZBTB11 / RFU, TAMM41 / Fold change vs veh, TAMM41 / RFU, KIAA1704 /// LOC100996395 / Fold change vs veh, KIAA1704 /// LOC100996395 / RFU, ING1 / Fold change vs veh, ING1 / RFU, TRMT61B / Fold change vs veh, TRMT61B / RFU, FUBP3 / Fold change vs veh, FUBP3 / RFU, TP53 / Fold change vs veh, TP53 / RFU, TNKS2 / Fold change vs veh, TNKS2 / RFU, ZFP14 / Fold change vs veh, ZFP14 / RFU, ACTR2 / Fold change vs veh, ACTR2 / RFU, PPP3R1 / Fold change vs veh, PPP3R1 / RFU, PIK3R1 / Fold change vs veh, PIK3R1 / RFU, HNRNPA1 / Fold change vs veh, HNRNPA1 / RFU, RNF170 / Fold change vs veh, RNF170 / RFU, ZNF28 / Fold change vs veh, ZNF28 / RFU, RNGTT / Fold change vs veh, RNGTT / RFU, OGT / Fold change vs veh, OGT / RFU, BRD1 / Fold change vs veh, BRD1 / RFU, MARS / Fold change vs veh, MARS / RFU, ZNF655 / Fold change vs veh, ZNF655 / RFU, FAHD1 / Fold change vs veh, FAHD1 / RFU, BDP1 / Fold change vs veh, BDP1 / RFU, LRRCC1 / Fold change vs veh, LRRCC1 / RFU, ARID1A / Fold change vs veh, ARID1A / RFU, ZNF146 / Fold change vs veh, ZNF146 / RFU, ZNF330 / Fold change vs veh, ZNF330 / RFU, GPN3 / Fold change vs veh, GPN3 / RFU, C9orf123 / Fold change vs veh, C9orf123 / RFU, N4BP2L2 / Fold change vs veh, N4BP2L2 / RFU, ARFIP1 / Fold change vs veh, ARFIP1 / RFU, FAM179B / Fold change vs veh, FAM179B / RFU, BCL10 / Fold change vs veh, BCL10 / RFU, UHRF1BP1L / Fold change vs veh, UHRF1BP1L / RFU, BET1 / Fold change vs veh, BET1 / RFU, CNOT2 / Fold change vs veh, CNOT2 / RFU, ZNF268 / Fold change vs veh, ZNF268 / Fold change vs veh, ZNF507 / RFU, DGCR2 / Fold change vs veh, DGCR2 / RFU, WDSUB1 / Fold change vs veh, WDSUB1 / Fold change vs veh, HSP90B1 /// MIR3652 / RFU, ADSS / Fold change vs veh, ADSS / RFU, GK / Fold change vs veh, GK / RFU, ZNF148 / Fold change vs veh, ZNF148 / RFU, TAF9 / Fold change vs veh, TAF9 / RFU, SLC1A5 / Fold change vs veh, SLC1A5 / RFU, SLMO2 / Fold change vs veh, SLMO2 / RFU, ABCC4 / Fold change vs veh, ABCC4 / RFU, LOC101060439 /// RAP1B / Fold change vs veh, LOC101060439 /// RAP1B / RFU, RFX7 / Fold change vs veh, RFX7 / RFU, GTPBP10 / Fold change vs veh, GTPBP10 / RFU, CNEP1R1 / Fold change vs veh, CNEP1R1 / RFU, BIVM-ERCC5 /// ERCC5 / Fold change vs veh, BIVM-ERCC5 /// ERCC5 / RFU, ILF3 / Fold change vs veh, ILF3 / RFU 11762660_at / Fold change /veh 11762660_at / RFU VCAN (11757783_s_at) / Fold change /veh VCAN (11757783_s_at) / RFU DDX43 (11728927_at) / Fold change /veh DDX43 (11728927_at) / RFU KRT8 (11758188_x_at) / Fold change /veh KRT8 (11758188_x_at) / RFU NKD1 (11759106_at) / Fold change /veh NKD1 (11759106_at) / RFU SRD5A1 (11742802_a_at) / Fold change /veh SRD5A1 (11742802_a_at) / RFU TPSAB1 /// TPSB2 (11721975_s_at) / Fold change /veh TPSAB1 /// TPSB2 (11721975_s_at) / RFU GSTM3 (11746129_a_at) / Fold change /veh GSTM3 (11746129_a_at) / RFU IL23R (11737362_x_at) / Fold change /veh IL23R (11737362_x_at) / RFU TMEM51 (11727254_a_at) / Fold change /veh TMEM51 (11727254_a_at) / RFU PIWIL2 (11732686_x_at) / Fold change /veh PIWIL2 (11732686_x_at) / RFU ORM1 (11744905_x_at) / Fold change /veh ORM1 (11744905_x_at) / RFU CCDC152 (11743942_at) / Fold change /veh CCDC152 (11743942_at) / RFU ECM1 (11717891_a_at) / Fold change /veh ECM1 (11717891_a_at) / RFU IL23R (11748794_a_at) / Fold change /veh IL23R (11748794_a_at) / RFU TNFAIP8L3 (11732012_x_at) / Fold change /veh TNFAIP8L3 (11732012_x_at) / RFU MBOAT4 (11741988_at) / Fold change /veh MBOAT4 (11741988_at) / RFU 11764193_at / Fold change /veh 11764193_at / RFU TMEM53 (11763286_at) / Fold change /veh TMEM53 (11763286_at) / RFU MAGEB2 (11727129_at) / Fold change /veh MAGEB2 (11727129_at) / RFU TMEM200A (11744735_a_at) / Fold change /veh TMEM200A (11744735_a_at) / RFU CCDC152 (11751479_a_at) / Fold change /veh CCDC152 (11751479_a_at) / RFU FAM211A (11726209_a_at) / Fold change /veh FAM211A (11726209_a_at) / RFU RGS16 (11746705_a_at) / Fold change /veh RGS16 (11746705_a_at) / RFU VCAN (11755009_s_at) / Fold change /veh VCAN (11755009_s_at) / RFU RHOB (11743442_s_at) / Fold change /veh RHOB (11743442_s_at) / RFU RGS16 (11720943_a_at) / Fold change /veh RGS16 (11720943_a_at) / RFU RGS16 (11720944_at) / Fold change /veh RGS16 (11720944_at) / RFU, VPS4B / Fold change vs veh, VPS4B / RFU, CREB1 / Fold change vs veh, CREB1 / RFU, DNAJC13 / Fold change vs veh, DNAJC13 / RFU, GNAQ / Fold change vs veh, GNAQ / RFU, CDK5R1 / Fold change vs veh, CDK5R1 / RFU, ZRANB3 / Fold change vs veh, ZRANB3 / RFU, CUL4A / Fold change vs veh, CUL4A / RFU, CCNY / Fold change vs veh, CCNY / RFU, UFL1 / Fold change vs veh, UFL1 / RFU, COG3 / Fold change vs veh, COG3 / RFU, DIAPH2 / Fold change vs veh, DIAPH2 / RFU, SKA2 / Fold change vs veh, SKA2 / RFU, AFF3 / Fold change vs veh, AFF3 / RFU, LMF1 / Fold change vs veh, LMF1 / RFU, IPO11 / Fold change vs veh, IPO11 / RFU, DFFB / Fold change vs veh, DFFB / RFU, FOXP1 / Fold change vs veh, FOXP1 / RFU, CARD8 / Fold change vs veh, CARD8 / RFU, STRN3 / Fold change vs veh, STRN3 / RFU, ADK / Fold change vs veh, ADK / RFU, RASSF2 / Fold change vs veh, RASSF2 / RFU, WIPF1 / Fold change vs veh, WIPF1 / RFU, LARP1B / Fold change vs veh, LARP1B / RFU, RASA1 / Fold change vs veh, RASA1 / RFU, RB1 / Fold change vs veh, RB1 / RFU, PPFIA1 / Fold change vs veh, PPFIA1 / RFU, MAT2A / Fold change vs veh, MAT2A / RFU, CCT5 / Fold change vs veh, CCT5 / RFU, WDR92 / Fold change vs veh, WDR92 / RFU, CUX1 / Fold change vs veh, CUX1 / RFU, TTC7A / Fold change vs veh, TTC7A / RFU, TMEM135 / Fold change vs veh, TMEM135 / RFU, DEPTOR / Fold change vs veh, DEPTOR / RFU, CPM / Fold change vs veh, CPM / RFU, DNAJB6 / Fold change vs veh, DNAJB6 / RFU, CACNA2D3 / Fold change vs veh, CACNA2D3 / RFU, DTX4 / Fold change vs veh, DTX4 / RFU, TFCP2 / Fold change vs veh, TFCP2 / RFU, GMCL1 /// GMCL1P1 / Fold change vs veh, GMCL1 /// GMCL1P1 / RFU, AEBP2 / Fold change vs veh, AEBP2 / RFU, SNHG1 /// SNORD22 /// SNORD25 /// SNORD26 /// SNORD27 /// SNORD28 /// SNORD29 /// SNORD31 / Fold change vs veh, SNHG1 /// SNORD22 /// SNORD25 /// SNORD26 /// SNORD27 /// SNORD28 /// SNORD29 /// SNORD31 / Fold change (Aza/veh), C12orf56 (ProbeSet 11735607_a_at) / Fold change (ACY-1035/veh), C12orf56 (ProbeSet 11735607_a_at) / Fold change (Aza/veh), FGFR1OP (ProbeSet 11751329_s_at) / Fold change (ACY-1035/veh), FGFR1OP (ProbeSet 11751329_s_at) / Fold change (Aza/veh), VPS36 (ProbeSet 11739960_a_at) / Fold change (ACY-1035/veh), VPS36 (ProbeSet 11739960_a_at) / RFU SYPL1 (11715823_x_at) / Fold change /veh SYPL1 (11715823_x_at) / RFU IGFBP7 (11715501_s_at) / Fold change /veh IGFBP7 (11715501_s_at) / RFU REEP3 (11722064_at) / Fold change /veh REEP3 (11722064_at) / RFU IGLL1 (11728026_x_at) / Fold change /veh IGLL1 (11728026_x_at): dose or concentration left out as unconfirmed
Conditions: MV-4-11 cells, 48 hours

With Nc1ncn([C@@H]2O[C@H](CO)[C@@H](O)[C@H]2O)c(=O)n1 [azacitidine] the “Fold change /veh MYO3A (11730013_a_at)” value was 0.99.
